{"source": "patent US7125897B1", "about": "“Combined therapies for atherosclerosis treatment” (Vasogen Ireland Limited, priority 1999, dated 2006)", "assay_type_in_all_cases": "in vivo, human", "key": {"[1]": {"assay": "Posterior tibial/brachial and dorsalis/brachial pressure index in patient with peripheral arterial occlusive disease", "procedure": "(§1) The stressed blood treatment used in the study involves the collection of 10 ml of a patient's venous blood into 2-ml of sodium citrate 3.13% as anticoagulant. The blood sample is transferred to a sterile, disposable low-density polyethylene vessel (model #V7002) for ex vivo treatment and is then exposed to the following three stimuli: • 1) An elevated temperature of 42.5° C.±1.0° C. at steady state controlled and monitored with a thermocouple; • 2) a gas mixture of medical oxygen containing 14.5±1.0 ug/ml of ozone, at a flow rate of 240±24 ml/min for 3 minutes; • 3) Ultra-violet light at a wavelength of 253.7 nm, and a total energy of 2.0 joules/cm^2.\n(§2) The ex vivo treatment of the patient's blood sample is performed within a Blood Treatment Unit (model #V7001), generally described in U.S. Pat. No. 4,968,483 Mueller. The Unit regulates and monitors these physicochemical agents. The temperature of the blood is raised to 42.5° C., a process that takes up to 8 minutes depending upon the starting temperature of the blood sample. Before this temperature is reached the UV lights turn on, so that they reach maximum output by the time that the gas flow is initiated, which occurs when the temperature of the blood reaches 42.5° C. The total time of exposure to UV light is about 9 minutes. The gas mixture is bubbled through the blood sample at a flow rate of 240±24 ml/min for a period of 3 minutes while the temperature of the blood is maintained and UV irradiation continues. At the end of the treatment with the three stimuli (stressors), the blood is allowed to settle for 7 minutes. The device then signals that the treatment has been completed successfully. The entire process takes about 20 minutes.\n(§3) In a separate investigation, a patient suffering from peripheral arterial occlusive disease (a consequence of atherosclerosis) and receiving a regular, normal daily dose of lovastatin received 10 treatments of autologous stressed blood prepared as described above (10 ml aliquots, administered intramuscularly) over a 14-week period. As a result, their posterior tibial/brachial pressure index increased from 0.69 to 0.85, a very significant change."}, "[2]": {"assay": "Claudication distance in patient with peripheral arterial occlusive disease", "conditions": "regular daily lovastatin plus 10 i.m. treatments of 10 ml autologous stressed blood over 14 weeks", "procedure": "as §3"}, "[3]": {"assay": "Ankle/brachial artery pressure ratio (ABPI) in patient with intermittent claudication", "conditions": "left leg; for ankle/brachial artery pressure ratio (ABPI): margin of error 0.1", "procedure": "as §1, §2\nA person with intermittent claudication (a cramping pain caused by arterial obstruction and indicative of the presence of a relatively advanced stage of atherosclerosis) in their left leg, was administered fluvastatin 20 mg. daily for hypercholesterolemia. Their initial ankle/brachial artery pressure ratio (ABPI) in the left leg was 0.60, normal values being greater than 0.9. […]"}, "[4]": {"conditions": "regular daily lovastatin plus 10 i.m. treatments of 10 ml autologous stressed blood over 14 weeks"}, "[5]": {"conditions": "regular daily lovastatin, before stressed blood treatments"}}, "data": [{"smiles": "CC[C@H](C)C(=O)O[C@H]1C[C@@H](C)C=C2C=C[C@H](C)[C@H](CC[C@@H]3C[C@@H](O)CC(=O)O3)[C@H]21", "note": "[lovastatin]", "values": [{"measurement": "dorsalis (foot artery)/brachial pressure index", "setting": "[1]; [4]", "value": 0.85}, {"measurement": "posterior tibial/brachial pressure index", "setting": "[1]; [4]", "value": 0.85}, {"measurement": "dorsalis (foot artery)/brachial pressure index", "setting": "[1]; [5]", "value": 0.77}, {"measurement": "posterior tibial/brachial pressure index", "setting": "[1]; [5]", "value": 0.69}, {"measurement": "claudication distance (walking distance before experiencing cramping pain in the legs)", "setting": "[2]", "value": "improved"}]}, {"smiles": "CC(C)n1c(/C=C/C(O)CC(O)CC(=O)O)c(-c2ccc(F)cc2)c2ccccc21", "note": "(centres unmarked) [fluvastatin]", "values": [{"measurement": "ankle/brachial artery pressure ratio (ABPI)", "setting": "[3]; fluvastatin 20 mg daily plus 9 i.m. treatments with 10 ml stressed autologous blood over 3 weeks", "value": 0.66}, {"measurement": "ankle/brachial artery pressure ratio (ABPI)", "setting": "[3]; fluvastatin 20 mg daily plus stressed blood, 2 months after the end of treatment schedule", "value": 0.75}, {"measurement": "initial ankle/brachial artery pressure ratio (ABPI)", "setting": "[3]; fluvastatin 20 mg daily, before stressed blood treatments, normal values greater than 0.9", "value": 0.60}]}]}
